Read-outs that look alike come from different tables or passages of the source.
Tests used:
Assay type in all cases: cell-based
AsPC-1 = test: WST-1 cell viability, pancreatic cancer cell line AsPC-1; conditions: Homo sapiens
Protocol: (§1) The cell numbers were counted and reseed as 2×10^6 in culture plate/flask. Then, the culture medium were added to a volume of 10 ml, and the cells were cultured for 2-3 days. Then, the cells were suspended for loading into 96-well plates. The number of cells was 3000 and the volume of the culture medium was 100 μl each well.
(§2) Removing the original culture medium from 96-well plate. Then add 100 μl of commercially drug at a concentration of 10 μM per well. After 72 hours, add the diluted WST-1 reagent to the well with 100 μl/well, and the diluted WST-1 reagent was acquired from the dilution of 9:1 medium and WST-1 stock reagent. Finally, the total volume of each well was 200 μl/well. Culture the 96-well plate at 37° C. for 30 to 90 minutes. Detecting and calculate the survival rate of each cancer cells with an ELISA reader at OD450 nm.

[1] = tested on: A549 (lung adenocarcinoma); test: WST-1 cell viability, lung cancer cell line A549; conditions: Homo sapiens
Protocol: as §1, §2

[2] = tested on: LoVo(Colorectal Adenocarcinoma); test: WST-1 cell viability, colorectal cancer cell line LoVo; conditions: Homo sapiens, 72 h
Protocol: as §1, §2

[3] = tested on: HepG2 (hepatocellular carcinoma); test: WST-1 cell viability, hepatic cancer cell line HepG2; conditions: Homo sapiens
Protocol: as §1, §2

[4] = tested on: H1650 (lung adenocarcinoma); test: WST-1 cell viability, lung cancer cell line H1650; conditions: Homo sapiens
Protocol: as §1, §2

[5] = tested on: MDA-MB-231 (Mammary Gland, Adenocarcinoma); test: WST-1 cell viability, breast cancer cell line MDA-MB-231; conditions: Homo sapiens
Protocol: as §1, §2

[6] = tested on: AGS (Gastric Adenocarcinoma); test: WST-1 cell viability, gastric cancer cell line AGS; conditions: 72 h
Protocol: as §1, §2

T24 = test: WST-1 cell viability, bladder cancer cell line T24; conditions: Homo sapiens
Protocol: as §1
as §2, with “Culture the 96-well plate at 37° C. for 30 to 90 minutes.” left out

breast cancer cells = test: Summary of cell viability, breast cancer; conditions: 72 h, read-out: Inhibitory effect
Protocol: as §2

[7] = tested on: SAS (Tongue squamouscell carcinoma); test: WST-1 cell viability, tongue cancer cell line SAS; conditions: 72 h
Protocol: as §1, §2

[8] = tested on: BCC (basal cell carcinoma); test: WST-1 cell viability, skin cancer cell line BCC; conditions: 72 h
Protocol: as §1, §2

various cancer cells = test: Inhibitory effect on various cancer cells (cell viability); conditions: Table 18, FIG. 1
Text: Subculture the different types of cancer cells. The cancer cells includes lung cancer, gastric cancer, hepatic cancer, colon cancer, skin cancer, cervical cancer, prostate cancer, bladder cancer, breast cancer, leukemia, pancreatic cancer, ovarian cancer, tongue cancer, osteosarcoma, and renal cancer. The normal cells used in the control group included kidney cells (HEK293), canine fibroblast cell line HFW, and human bronchial epithelial cell line BEAS-2B. Removing the original culture medium from 96-well plate. […] After 72 hours, add the diluted WST-1 reagent to the well with 100 μl/well, and the diluted WST-1 reagent was acquired from the dilution of 9:1 medium and WST-1 stock reagent. […] Culture the 96-well plate at 37° C. for 30 to 90 minutes. Detecting and calculate the survival rate of each cancer cells with an ELISA reader at OD450 nm. […] (FIG. 1)

TSGH = test: WST-1 cell viability, bladder cancer cell line TSGH; conditions: 72 h
Protocol: as §1, §2

[9] = tested on: C-33A (Cervical carcinoma); test: WST-1 cell viability, cervical cancer cell line C-33A; conditions: Homo sapiens, 72 h
Protocol: as §1, §2

[10] = average of 4 tests, read-out: survival rate (inhibition effect), Average
[11] = run 0510-10 min, read-out: survival rate (inhibition effect)
[12] = run 0512-10 min, read-out: survival rate (inhibition effect)
[13] = run 0515-10 min, read-out: survival rate (inhibition effect)
[14] = run 0517-10 min, read-out: survival rate (inhibition effect)

Compound: Fc1ccc([C@@H]2CCNC[C@H]2COc2ccc3c(c2)OCO3)cc1 [Paroxetine]
- viability at 10 µM (AsPC-1; ASPC1, 72 h, AsPC-1, average of 4 tests, read-out: survival rate (inhibition effect), Average): 77%
- viability at 10 µM (AsPC-1; ASPC1, AsPC-1, 72 h, run 1-4-30 min, read-out: survival rate (inhibition effect)): 72.5%
- viability at 10 µM (AsPC-1; ASPC1, AsPC-1, 72 h, run 1-7-3-30 min, read-out: survival rate (inhibition effect)): 78.8%
- viability at 10 µM (AsPC-1; ASPC1, AsPC-1, 72 h, run 1-7-4-30 min, read-out: survival rate (inhibition effect)): 87.3%
- viability at 10 µM (AsPC-1; ASPC1, AsPC-1, 72 h, run 1-7-7-30 min, read-out: survival rate (inhibition effect)): 69.3%
- viability at 10 µM ([1]; A549, 72 h, A549, average of 4 tests, read-out: survival rate (inhibition effect), Average): 92.4%
- viability at 10 µM ([1]; A549, A549, 72 h, run 0524-10 min, read-out: survival rate (inhibition effect)): 84.2%
- viability at 10 µM ([1]; A549, A549, 72 h, run 0526-10 min, read-out: survival rate (inhibition effect)): 127%
- viability at 10 µM ([1]; A549, A549, 72 h, run 0529-10 min, read-out: survival rate (inhibition effect)): 54%
- viability at 10 µM ([1]; A549, A549, 72 h, run 0531-10 min, read-out: survival rate (inhibition effect)): 104%
- viability at 10 µM [2, 10]: 58%
- viability at 10 µM ([2]; run 0616-10 min, read-out: survival rate (inhibition effect)): 54.1%
- viability at 10 µM ([2]; run 0619-10 min, read-out: survival rate (inhibition effect)): 51.5%
- viability at 10 µM ([2]; run 0621-10 min, read-out: survival rate (inhibition effect)): 77.3%
- viability at 10 µM ([2]; run 0623-10 min, read-out: survival rate (inhibition effect)): 48.9%
- viability at 10 µM ([3]; HepG2, 72 h, HepG2, average of 4 tests, read-out: survival rate (inhibition effect), Average): 54.1%
- viability at 10 µM ([3]; HepG2, HepG2, 72 h, run 0524-20 min, read-out: survival rate (inhibition effect)): 66.4%
- viability at 10 µM ([3]; HepG2, HepG2, 72 h, run 0526-20 min, read-out: survival rate (inhibition effect)): 58.3%
- viability at 10 µM ([3]; HepG2, HepG2, 72 h, run 0529-20 min, read-out: survival rate (inhibition effect)): 50.1%
- viability at 10 µM ([3]; HepG2, HepG2, 72 h, run 0531-20 min, read-out: survival rate (inhibition effect)): 41.7%
- viability at 10 µM ([4]; NCI-H1650, 72 h, H1650, average of 4 tests, read-out: survival rate (inhibition effect), Average): 56.9%
- viability at 10 µM ([4]; NCI-H1650, H1650, 72 h, run 1-10 min, read-out: survival rate (inhibition effect)): 66.4%
- viability at 10 µM ([4]; NCI-H1650, H1650, 72 h, run 2-20 min, read-out: survival rate (inhibition effect)): 31.6%
- viability at 10 µM ([4]; NCI-H1650, H1650, 72 h, run 3-20 min, read-out: survival rate (inhibition effect)): 58.2%
- viability at 10 µM ([4]; NCI-H1650, H1650, 72 h, run 4-20 min, read-out: survival rate (inhibition effect)): 71.3%
- viability at 10 µM ([5]; MDA-MB-231, 72 h, MDA-MB-231, average of 4 tests, read-out: survival rate (inhibition effect), Average): 41.8%
- viability at 10 µM ([5]; MDA-MB-231, MDA-MB-231, 72 h, run 0612-10 min, read-out: survival rate (inhibition effect)): 47.9%
- viability at 10 µM ([5]; MDA-MB-231, MDA-MB-231, 72 h, run 0614-10 min, read-out: survival rate (inhibition effect)): 35.9%
- viability at 10 µM ([5]; MDA-MB-231, MDA-MB-231, 72 h, run 0616-10 min, read-out: survival rate (inhibition effect)): 42%
- viability at 10 µM ([5]; MDA-MB-231, MDA-MB-231, 72 h, run 0619-10 min, read-out: survival rate (inhibition effect)): 41.2%
- viability at 10 µM [6, 10]: 12.2%
- viability at 10 µM [6, 11]: 12%
- viability at 10 µM [6, 12]: 11.1%
- viability at 10 µM [6, 13]: 12.7%
- viability at 10 µM [6, 14]: 12.8%
- viability at 10 µM (T24; T-24, 72 h, T24, average of 4 tests, read-out: survival rate (inhibition effect), Average): 99.9%
- viability at 10 µM (T24; T-24, T24, 72 h, run 1-30 min, read-out: survival rate (inhibition effect)): 112%
- viability at 10 µM (T24; T-24, T24, 72 h, run 2-20 min, read-out: survival rate (inhibition effect)): 85.2%
- viability at 10 µM (T24; T-24, T24, 72 h, run 3-20 min, read-out: survival rate (inhibition effect)): 102%
- viability at 10 µM (T24; T-24, T24, 72 h, run 4-20 min, read-out: survival rate (inhibition effect)): 102%
- viability at 10 µM (breast cancer cells): 46.5%
- viability at 10 µM ([7]; SAS, average of 4 tests, read-out: survival rate (inhibition effect), Average): 51.5%
- viability at 10 µM ([7]; summary, tongue cancer, read-out: Inhibitory effect): 51.5%
- viability at 10 µM ([7]; SAS, run 6-26-10 min, read-out: survival rate (inhibition effect)): 48.2%
- viability at 10 µM ([7]; SAS, run 6-28-10 min, read-out: survival rate (inhibition effect)): 26.7%
- viability at 10 µM ([7]; SAS, run 6-30-10 min, read-out: survival rate (inhibition effect)): 58%
- viability at 10 µM ([7]; SAS, run 7-3-10 min, read-out: survival rate (inhibition effect)): 73.1%
- viability at 10 µM [8, 10]: 58.2%
- viability at 10 µM ([8]; run 0602-30 min, read-out: survival rate (inhibition effect)): 42.1%
- viability at 10 µM ([8]; run 0605-10 min, read-out: survival rate (inhibition effect)): 52.6%
- viability at 10 µM ([8]; run 0607-10 min, read-out: survival rate (inhibition effect)): 41.1%
- viability at 10 µM ([8]; run 0609-10 min, read-out: survival rate (inhibition effect)): 97%
- inhibitory effect on several cancer cell lines (various cancer cells): significant inhibitory effect
- viability at 10 µM (TSGH; [10]): 38.4%
- viability at 10 µM (TSGH; [11]): 37.1%
- viability at 10 µM (TSGH; [12]): 37.4%
- viability at 10 µM (TSGH; [13]): 36.8%
- viability at 10 µM (TSGH; [14]): 42.2%
- viability at 10 µM [9, 10]: 33.2%
- viability at 10 µM ([9]; run 0524-10 min, read-out: survival rate (inhibition effect)): 33.2%
- viability at 10 µM ([9]; run 0526-10 min, read-out: survival rate (inhibition effect)): 32.1%
- viability at 10 µM ([9]; run 0529-10 min, read-out: survival rate (inhibition effect)): 31.7%
- viability at 10 µM ([9]; run 0531-10 min, read-out: survival rate (inhibition effect)): 35.8%
